pIC50: −log10 of the molar value.
What was measured:
hERG channel = target: T1, hERG channel (Homo sapiens, UniProt Q12809); experiment: Patch clamp assay to test the effect of compound on hERG channel; assay type: cell-based; settings: manual patch clamp, HEK 293 cells expressed with hERG, concentration for half maximum effect
T1 construct: expressed in transfected cells; host or cells: HEK-293
Protocol: 10 mL extracellular solution was used to dilute the stock solution, making the final concentrations of test compound were 0.3 μM, 1 μM, 3 μM, 10 μM and 30 μM.
The solubility of compound was visually observed.
The cell line was derived from HEK-293 cells, and grown in a humidified environment at 37° C. under 5% CO2, using the media formulation below. The cell line should not be allowed to exceed 80% confluence within the culture vessel to prevent contact inhibition causing senescence and should thus be passaged every 3/4 days using a seeding density of 2*10^6 cells per T175 flask. Cell lines were be pre-washed with phosphate buffered saline before harvesting with Trypsin/EDTA and seeded into new flasks.
HEK 293 cells expressed with hERG were plated on cover slips overnight with the cell density less than 50% of confluence. Cells used for electrophysiological study were transferred to a small cell bath (1 mL) mounted on the stage of an inverted microscope (Diaphot, Nikon) and were perfused with external solution containing (in mM) 130 NaCl, 4 KCl, 1.8 CaCl2), 1 MgCl2, 10 glucose and 10 HEPES (pH 7.4 with NaOH), the perfusion rate was 4 mL/min. The internal pipette solution contained (in mM) 130 KCl, 1 MgCl2, 5 ethylene glycol-bis(baminoethyl ether)-N,N,N8,N8-tetraacetic acid, 5 MgATP and 10 HEPES (pH 7.2 with KOH). An HEKA EPC-10 patch-clamp amplifier and PATCHMASTER acquisition program were used to record membrane currents (HEKA Instruments IncD-67466 Lambrecht/Pfalz Germany). All experiments were performed at room temperature (22-23° C.).
The Model P-97 micropipette puller (Sutter Instrument Company, One Digital Drive, Novato, Calif. 94949) was used to pull glass patch pipettes (BF150-86-10) in all experiments.
The experiments were initiated with a 2 min vehicle control period after forming a whole cell configuration with less 5% run-down in 5 min and the tail currents in the report were at least greater than 500 pA. After a 2 min vehicle control period, the perfusion was switched to the reservoir containing the compound at the first concentration. The same procedure was repeated 3-5 times so that each cell was exposed to 4-6 escalating concentrations of compound. The time courses for block and unblock of hERG during compounds exposure and washout were continuously recorded.
The peak tail of hERG was generated by applying 2-sec depolarizing every 12 sec steps from a holding potential of −80 mV, the peak of tail currents were measured at a 5-sec repolarizing pulse at −50 mV.
hERG peak tail currents were directly measured from a 5 sec repolarization pulse at −50 mV. The fraction of control current was plotted as a function of logarithm of compound concentration. To determine the concentration of compound for halfmaximum effect, the concentration-response curve was fitted by Hill equation as shown follow.
where Y is the observed value, Bottom is the lowest observed value (0), Top is the highest observed value (1), and the Hillcoefficient gives the largest absolute value of the slope of the curve.
Data were analyzed by a combination of PATCHMASTER ((HEKA Instruments IncD-67466 Lambrecht/Pfalz Germany) and Origin (OriginLab Corporation, Northampton, Mass.) software programs.
Data were expressed as mean±SEM.

SHP2 = target: T2, SHP2 (Homo sapiens, UniProt Q06124); experiment: SHP2 allosteric inhibitor enzyme activity assay (DiFMUP fluorescence); assay type: biochemical
T2 sequence (Q06124 1-593): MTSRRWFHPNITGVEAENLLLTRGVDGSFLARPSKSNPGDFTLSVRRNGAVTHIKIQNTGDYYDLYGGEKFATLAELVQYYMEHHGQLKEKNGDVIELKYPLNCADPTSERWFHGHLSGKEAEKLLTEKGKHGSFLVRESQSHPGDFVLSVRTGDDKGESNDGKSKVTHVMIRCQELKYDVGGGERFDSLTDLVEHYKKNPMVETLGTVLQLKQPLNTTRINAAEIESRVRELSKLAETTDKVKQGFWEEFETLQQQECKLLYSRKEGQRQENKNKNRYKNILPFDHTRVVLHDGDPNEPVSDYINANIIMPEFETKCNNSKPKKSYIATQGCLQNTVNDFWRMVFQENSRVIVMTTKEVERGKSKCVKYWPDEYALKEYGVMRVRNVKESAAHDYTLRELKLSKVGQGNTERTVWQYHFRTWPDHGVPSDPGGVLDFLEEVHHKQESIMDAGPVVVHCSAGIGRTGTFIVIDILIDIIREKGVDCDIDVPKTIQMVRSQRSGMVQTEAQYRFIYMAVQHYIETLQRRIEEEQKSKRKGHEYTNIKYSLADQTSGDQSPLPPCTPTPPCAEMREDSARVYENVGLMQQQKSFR
How it was run: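 SHP2 activated by 0.5 μM IRS1_pY1172(dPEG8)pY1222 peptide, 0.2 ng enzyme per well, 1 h at room temperature with compound (1 μM top, 3-fold series), then DiFMUP substrate 1 h. Buffer: 60 mM HEPES, 75 mM NaCl, 75 mM KCl, 0.05% BRIJ-35, 1 mM EDTA, 5 mM DTT. Fluorescence ex 340/em 450 nm; IC50 by variable-slope fit.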

T1 sequence (Q12809 whole entry): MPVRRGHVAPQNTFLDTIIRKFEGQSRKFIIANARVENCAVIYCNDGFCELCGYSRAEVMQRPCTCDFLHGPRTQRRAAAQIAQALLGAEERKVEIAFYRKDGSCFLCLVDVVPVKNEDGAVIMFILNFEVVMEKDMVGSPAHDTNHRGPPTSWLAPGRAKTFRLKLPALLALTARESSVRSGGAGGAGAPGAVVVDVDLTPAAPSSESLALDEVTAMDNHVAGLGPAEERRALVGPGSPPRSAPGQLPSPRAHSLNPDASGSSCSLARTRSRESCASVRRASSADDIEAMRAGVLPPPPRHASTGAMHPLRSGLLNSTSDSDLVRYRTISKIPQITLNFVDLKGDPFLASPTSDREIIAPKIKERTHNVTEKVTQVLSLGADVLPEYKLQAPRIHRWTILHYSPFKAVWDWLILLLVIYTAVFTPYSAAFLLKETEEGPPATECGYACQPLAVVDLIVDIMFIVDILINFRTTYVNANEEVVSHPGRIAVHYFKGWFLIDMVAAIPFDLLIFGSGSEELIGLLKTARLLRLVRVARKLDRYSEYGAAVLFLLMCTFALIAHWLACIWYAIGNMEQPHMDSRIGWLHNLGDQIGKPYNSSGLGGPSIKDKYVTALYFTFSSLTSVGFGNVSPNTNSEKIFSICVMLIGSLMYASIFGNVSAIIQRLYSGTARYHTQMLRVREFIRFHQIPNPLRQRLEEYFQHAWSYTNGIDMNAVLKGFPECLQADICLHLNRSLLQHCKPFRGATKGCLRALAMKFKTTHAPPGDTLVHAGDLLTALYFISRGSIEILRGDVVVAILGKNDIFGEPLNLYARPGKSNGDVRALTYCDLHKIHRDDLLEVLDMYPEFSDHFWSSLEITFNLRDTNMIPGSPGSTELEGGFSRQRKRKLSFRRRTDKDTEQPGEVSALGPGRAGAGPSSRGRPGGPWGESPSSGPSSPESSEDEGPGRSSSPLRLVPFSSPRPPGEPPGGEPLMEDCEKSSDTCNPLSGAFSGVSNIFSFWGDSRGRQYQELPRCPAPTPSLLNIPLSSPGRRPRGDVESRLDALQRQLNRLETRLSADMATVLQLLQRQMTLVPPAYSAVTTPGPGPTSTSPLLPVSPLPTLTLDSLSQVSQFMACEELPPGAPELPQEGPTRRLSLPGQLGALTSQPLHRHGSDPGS

Row | Structure (SMILES) | pIC50 (SHP2; class symbols) | pIC50 (SHP2; numeric values) | pIC50 (hERG channel)
1 | Cn1c(N2CCC3(CC2)Cc2ccccc2[C@H]3N)nc2[nH]nc(C3(c4ccccc4)CC3)c2c1=O [Example 1] | ≥ 7.70 |  | 5.75
2 | N[C@@H]1c2ccccc2CC12CCN(c1nc3[nH]nc(C4(c5cccc(C(F)(F)F)c5)CC4)c3c(=O)[nH]1)CC2 [Example 8, (S)-6-(1-amino-1,3-dihydrospiro[indene-2,4′-piperidin]-1′-yl)-3-(1-(3-(trifluoromethyl)plienyl)cyclo-propyl)-1,5-dihydro-4H-pyrazolo[3,4-d]pyrimidin-4-one] |  | 8.66 | 
3 | N[C@@H]1c2ccccc2CC12CCN(c1nc3[nH]nc(C4(c5ccccc5)CC4(F)F)c3c(=O)[nH]1)CC2 (stereo partly drawn) [Example 9, 6-((S)-1-amino-1,3-dihydrospiro[indene-2,4′-piperidin]-1′-yl)-3-(2,2-difluoro-1-phenylcyclopropyl)-1,5-dihydro-4H-pyrazolo[3,4-d]pyrimidin-4-one] | ≥ 7.70 |  | 4.98
4 | N[C@@H]1c2ccccc2CC12CCN(c1nc3[nH]nc(C4(c5ccc(F)cc5)CC4)c3c(=O)[nH]1)CC2 [Example 11, (S)-6-(1-amino-1,3-dihydrospiro[indene-2,4′-piperidin]-1′-yl)-3-(1-(4-fluorophenyl)cyclopropyl)-1,5-dihydro-4H-pyrazolo[3,4-d]pyrimidin-4-one] | ≥ 7.70 |  | 
5 | N[C@@H]1c2ccccc2CC12CCN(c1nc3[nH]nc(C4(c5ccc6c(c5)OC(F)(F)O6)CC4)c3c(=O)[nH]1)CC2 [Example 13, (S)-6-(1-amino-1,3-dihydrospiro[indene-2,4′-piperidin]-1′-yl)-3-(1-(2,2-difluorobenzo[d][1,3]dioxol-5-yl)cyclopropyl)-1,5-dihydro-4H-pyrazolo[3,4-d]pyrimidin-4-one] | ≥ 7.70 |  | 
6 | N[C@@H]1c2ccccc2CC12CCN(c1nc3[nH]nc(C4(c5ccccc5)CC4)c3c(=O)[nH]1)CC2 [Example 33] |  | 9.05 | 5.02
7 | N[C@@H]1c2ccccc2CC12CCN(c1nc3[nH]nc(C4(c5ccccc5)COC4)c3c(=O)[nH]1)CC2 [Example 96, (S)-6-(1-amino-1,3-dihydrospiro[indene-2,4′-piperidin]-1′-yl)-3-(3-phenyloxetan-3-yl)-1,5-dihydro-4H-pyrazolo[3,4-d]pyrimidin-4-one] | ≥ 7.70 |  | < 4.52
8 | N[C@@H]1c2ccccc2CC12CCN(c1nc3[nH]nc(C4(c5ccc(C(F)(F)F)cc5)CC4)c3c(=O)[nH]1)CC2 [Example 228, (S)-6-(1-amino-1,3-dihydrospiro[indene-2,4′-piperidin]-1′-yl)-3-(1-(4-(trifluoromethyl)phenyl)cyclo-propyl)-1,5-dihydro-4H-pyrazolo[3,4-d]pyrimidin-4-one] | ≥ 7.70 |  | 
9 | N[C@@H]1c2ccccc2CC12CCN(c1nc3[nH]nc(C4(c5ccc(O)cc5)CC4)c3c(=O)[nH]1)CC2 [Example 234, (S)-6-(1-amino-1,3-dihydrospiro[indene-2,4′-piperidin]-1′-yl)-3-(1-(4-hydroxyphenyl)cyclopropyl)-1,5-dihydro-4H-pyrazolo[3,4-d]pyrimidin-4-one] | ≥ 7.70 |  | < 4.52
10 | N#Cc1ccc(C2(c3n[nH]c4nc(N5CCC6(CC5)Cc5ccccc5[C@H]6N)[nH]c(=O)c34)CC2)cc1 [Example 237, (S)-4-(1-(6-(1-amino-1,3-dihydrospiro[indene-2,4′-piperidin]-1′-yl)-4-oxo-4,5-dihydro-1H-pyrazolo[3,4-d]pyrimidin-3-yl)cyclopropyl)benzonitrile] | ≥ 7.70 |  | 5.10

Now from value to molecule, other results behind:

Row | pIC50 (SHP2; class symbols) | pIC50 (SHP2; numeric values) | Structure (SMILES) | pIC50 (hERG channel)
11 |  | 9.21 | N[C@@H]1c2ccccc2CC12CCN(c1nc3[nH]nc(C4(c5cccc(F)c5)CC4)c3c(=O)[nH]1)CC2 [Example 6, (S)-6-(1-amino-1,3-dihydrospiro[indene-2,4′-piperidin]-1′-yl)-3-(1-(3-fluorophenyl)cyclopropyl)-1,5-dihydro-4H-pyrazolo[3,4-d]pyrimidin-4-one] | 
12 | ≥ 7.70 |  | N[C@@H]1c2ccccc2CC12CCN(c1nc3[nH]nc(C4(c5ccc(Cl)c(Cl)c5)CC4)c3c(=O)[nH]1)CC2 [Example 21, (S)-6-(1-amino-1,3-dihydrospiro[indene-2,4′-piperidin]-1′-yl)-3-(1-(3,4-dichlorophenyl)cyclopropyl)-1,5-dihydro-4H-pyrazolo[3,4-d]pyrimidin-4-one] | 
13 |  | 8.80 | N[C@@H]1c2ccccc2CC12CCN(c1nc3[nH]nc(C4(c5cccs5)CC4)c3c(=O)[nH]1)CC2 [Example 24, (S)-6-(1-amino-1,3-dihydrospiro[indene-2,4′-piperidin]-1′-yl)-3-(1-(thiophen-2-yl)cyclopropyl)-1,5-dihydro-4H-pyrazolo[3,4-d]pyrimidin-4-one] | 4.83
14 |  | 8.57 | N[C@@H]1c2ccccc2CC12CCN(c1nc3[nH]nc(C4(c5ccc6c(c5)OCO6)CC4)c3c(=O)[nH]1)CC2 [Example 34, (S)-6-(1-amino-1,3-dihydrospiro[indene-2,4′-piperidin]-1′-yl)-3-(1-(benzo[d][1,3]dioxol-5-yl)cyclopropyl)-1,5-dihydro-4H-pyrazolo[3,4-d]pyrimidin-4-one] | 5.16
15 | ≥ 7.70 |  | Nc1ccc(C2(c3n[nH]c4nc(N5CCC6(CC5)Cc5ccccc5[C@H]6N)[nH]c(=O)c34)CC2)cc1 [Example 230, (S)-6-(1-amino-1,3-dihydrospiro[indene-2,4′-piperidin]-1′-yl)-3-(1-(4-aminophenyl)cyclopropyl)-1,5-dihydro-4H-pyrazolo[3,4-d]pyrimidin-4-one] | < 4.52
16 | ≥ 7.70 |  | N[C@@H]1c2ccccc2CC12CCN(c1nc3[nH]nc(C4(c5csnn5)CC4)c3c(=O)[nH]1)CC2 [Example 240, (S)-3-(1-(1,2,3-thiadiazol-4-yl)cyclopropyl)-6-(1-amino-1,3-dihydrospiro[indene-2,4′-piperidin]-1′-yl)-1,5-dihydro-4H-pyrazolo[3,4-d]pyrimidin-4-one] | 4.77

— US20230192705A1, “SHP2 INHIBITORS, COMPOSITIONS AND USES THEREOF” (Betta Pharmaceuticals Co., Ltd, priority 2020, published 2023)
